Reference: US20110311621A1, “PHARMACEUTICAL COMPOSITIONS AND METHODS OF DELVERY” (priority 2010, published 2011)

What was measured:
[1] = Aliskiren bioavailability after jejunal administration to conscious rats, compared with oral solution by gavage; details: AUC relative to aliskiren oral solution (gavage)
Source text: (i) Jejunal Administration to Conscious rats
To test the bioavailability of formulations in the jejunum of conscious rats, a specialized rat model was established in which two different cannulas are surgically implanted in male Sprague-Dowley rats (other rats may also be used): • 1—jejunal cannula to bypass the stomach and enable direct formulation administration to the jejunum; and • 2—jugular vein cannula to determine the systematic levels of the administered dextran following jejunal administration.
Rats were allowed to recover for 4 days before the study and were deprived of food for 18 hours before the start of the study. […]
Blood samples were drawn from the jugular vein at an appropriate series of times post jejunal administration and post IV administration, (or post SC administration), plasma was prepared and levels of active ingredient were determined in each sample. The average absolute Bioavailability (aBA) achieved after jejunal administration of the formulation is calculated as described below.
Exposure values, AUC (0-T), are calculated from the area under the serum concentration versus time curve (AUC) and are determined for jejunal and intravenous administration (or SC administration). […]

conscious rats = experiment: Effect of CCK-8 on food intake: volume of D-glucose solution consumed by conscious rats; format: in vivo, Sprague Dawley rats; details: 0.165 mg CCK-8 per rat; 30 min post administration
Protocol: Three of the above formulations (R, S and T) were prepared as follows for use in testing biological activity: Formulation R at levels of 0.165, 0.055, 0.003 mg CCK-8 per rat; Formulation S at 0.09 mg CCK-8 per rat; and Formulation T at 0.09 mg CCK-8 per rat. Thus Formulation R with 0.055 CCK-8 (% w/w) was used at 0.3 and 0.1 ml per rat to give a dose of 0.165 and 0.055 (mg per rat); Formulation R with 0.001 CCK-8 (% w/w) was used at 0.3 ml per rat to give a dose of 0.003 mg per rat; and Formulations S and T with 0.03 CCK-8 (% w/w) were both used at 0.3 ml to give a dose of 0.09 mg per rat.
The effect of oral administration of CCK8 on food intake was achieved by measuring the volume of D-glucose consumed by conscious rats (essentially using the method described by Chun-Min et al., Am. Physio. Soc. 296:R43-R50, 2009). The feeding response of conscious rats to exogenous oral CCK-8 was analyzed by measuring the volume of D-glucose solution consumed. Sprague Dawley rats cannulated at the jejunum (as described in Example 2) were fasted for 18 h. The fasted animals were administrated with a dose range of exogenous CCK8 using three formulations. Three groups served as controls: Rats administered with formulation alone; rats administered with CCK-8 in saline (0.165 mg
The volume of glucose solution consumption was measured at 30 min, 60 min and 90 min post administration. […]

Structure (SMILES) | Fold from gavage [1] | Average volume of glucose solution consumed (± standard error) (conscious rats) [mL] | Median volume of glucose solution consumed (conscious rats) [mL]
COCCCOc1cc(C[C@@H](C[C@H](N)[C@@H](O)C[C@H](C(=O)NCC(C)(C)C(N)=O)C(C)C)C(C)C)ccc1OC [Aliskiren oral solution, aliskiren] | 1 |  | 
CSCC[C@H](NC(=O)[C@H](Cc1ccc(OS(=O)(=O)O)cc1)NC(=O)[C@@H](N)CC(=O)O)C(=O)NCC(=O)N[C@@H](Cc1c[nH]c2ccccc12)C(=O)N[C@@H](CCSC)C(=O)N[C@@H](CC(=O)O)C(=O)N[C@@H](Cc1ccccc1)C(N)=O [CCK8 in saline, Sincalide] |  | 6.80 ± 0.99 | 7.90
